Assay [1] deals with NCI-H1299. The assay is described as follows: Inhibition of colony formation in human NCI-H1299 cells at 0.5 uM measured after 7 days by SRB staining based assay relative to control. In kind it is functional. The conditions noted are these: NCI-H1299, 168 h, time 7 day.
In assay [2] the target is Ubiquitin carboxyl-terminal hydrolase 1/WD repeat-containing protein 48 (Homo sapiens) (UniProt O94782+Q8TAF3). The assay can be described thus: Inhibition of recombinant human 6His-tagged USP1-6His-tagged UAF1 complex using diubiquitin as a substrate assessed as inhibiting the cleavage of K63-linked di-Ub at 0 to 10 uM preincubated for 15 mins followed by substrate addition and measured after 2 hrs by SDS-PAGE analysis. In kind it is protein-complex assay. The following applies: dose 0-10 µM, time 135.0 min.

Assay [3] addresses T1, Ubiquitin carboxyl-terminal hydrolase 4 (Homo sapiens) (UniProt Q13107).
T1 sequence (whole entry): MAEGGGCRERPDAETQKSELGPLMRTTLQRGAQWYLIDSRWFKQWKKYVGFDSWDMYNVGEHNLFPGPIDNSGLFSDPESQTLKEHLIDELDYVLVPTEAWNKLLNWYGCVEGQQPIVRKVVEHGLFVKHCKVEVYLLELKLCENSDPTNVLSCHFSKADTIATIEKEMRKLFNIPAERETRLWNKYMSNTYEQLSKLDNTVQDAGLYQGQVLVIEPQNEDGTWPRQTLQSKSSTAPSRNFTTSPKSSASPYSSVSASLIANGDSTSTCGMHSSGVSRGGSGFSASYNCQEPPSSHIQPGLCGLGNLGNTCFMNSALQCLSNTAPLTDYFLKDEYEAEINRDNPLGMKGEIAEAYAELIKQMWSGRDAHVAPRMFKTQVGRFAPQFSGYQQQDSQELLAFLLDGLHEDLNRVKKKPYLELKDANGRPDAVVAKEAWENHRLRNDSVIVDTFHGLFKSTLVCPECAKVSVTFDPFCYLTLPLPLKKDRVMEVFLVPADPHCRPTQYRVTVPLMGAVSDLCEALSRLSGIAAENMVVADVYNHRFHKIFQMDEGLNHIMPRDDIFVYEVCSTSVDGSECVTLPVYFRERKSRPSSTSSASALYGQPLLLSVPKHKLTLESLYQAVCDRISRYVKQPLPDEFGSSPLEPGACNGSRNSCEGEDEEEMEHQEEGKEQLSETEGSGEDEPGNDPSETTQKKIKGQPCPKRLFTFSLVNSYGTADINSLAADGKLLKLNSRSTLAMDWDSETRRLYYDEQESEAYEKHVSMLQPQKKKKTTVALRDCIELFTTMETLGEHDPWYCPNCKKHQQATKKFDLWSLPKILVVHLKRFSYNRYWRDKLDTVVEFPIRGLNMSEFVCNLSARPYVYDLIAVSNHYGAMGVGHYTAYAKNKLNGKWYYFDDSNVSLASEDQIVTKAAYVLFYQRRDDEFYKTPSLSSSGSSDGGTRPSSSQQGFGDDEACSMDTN
The assay is described as follows: Inhibition of recombinant human 6His-tagged USP4 using diubiquitin as a substrate at 0 to 10 uM preincubated for 15 mins followed by substrate addition and measured after 2 hrs by SDS-PAGE analysis. The conditions noted are these: dose 0-10 µM, time 135.0 min.

Active and inactive are the calls of the source. No cut-off for these calls is given here.

In assay [1], `COc1ncnc(C2CC2)c1-c1ncc2ccc(=O)n(Cc3ccc(-c4nc(C(F)(F)F)cn4C(C)C)cc3)c2n1` registered an inhibition at 0.5 µM of 70%. For the same molecule, the inhibition result in assay [2] was “Active”. Further, in assay [3], the inhibition result was “inactive”.

For the origin of these results see ChEMBL document CHEMBL5579832, “Design, synthesis, and biological evaluation of pyrido[2,3-d]pyrimidin-7(8H)-one derivatives as potent USP1 inhibitors” (Eur J Med Chem, 2024).
